Reference: patent US11166959B2, “Isofuranone compounds useful as HPK1 inhibitors” (BRISTOL-MYERS SQUIBB COMPANY, priority 2017, dated 2021)
Like-named read-outs stand apart in the source and are kept apart here.

Tests used:
HPK1 = biological target: T1, HPK1 (Homo sapiens, UniProt Q92918); test: HPK1 Inhibition Assay (kinase reaction, Caliper capillary electrophoresis); type: biochemical; details: for IRAK4/HPK1 Ratio: ratio of the IRAK4 IC50 value to the HPK1 IC50 value
T1 construct: purchased SignalChem M23-11G
T1 sequence (Q92918 1-346 limits assumed): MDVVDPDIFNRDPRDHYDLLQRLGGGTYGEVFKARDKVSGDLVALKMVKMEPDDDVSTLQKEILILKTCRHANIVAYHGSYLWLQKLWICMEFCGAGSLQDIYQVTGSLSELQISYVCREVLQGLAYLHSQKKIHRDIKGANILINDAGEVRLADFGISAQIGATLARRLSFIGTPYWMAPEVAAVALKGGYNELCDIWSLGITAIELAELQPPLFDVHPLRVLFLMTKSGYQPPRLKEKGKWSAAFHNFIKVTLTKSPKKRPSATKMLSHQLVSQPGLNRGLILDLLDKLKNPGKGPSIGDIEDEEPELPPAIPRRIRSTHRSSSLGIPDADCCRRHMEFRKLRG
Procedure, shortened: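 Kinase reactions ran 3 h and were stopped with 1 mM EDTA, with enzyme level and time set for at most 20-30% peptide substrate conversion. Phosphorylated and unphosphorylated peptide were separated by capillary electrophoresis to measure conversion. IC50 derived from 11 compound concentrations.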

IRAK4 = biological target: T2, IRAK4 (Homo sapiens, UniProt Q9NWZ3); test: IRAK4 Inhibition Assay (kinase reaction, Caliper capillary electrophoresis); type: biochemical; details: 500 μM ATP, 11 concentrations
T2 construct: 1 nM IRAK4 (160-460); purchased SignalChem M24016
T2 sequence (Q9NWZ3 160-460): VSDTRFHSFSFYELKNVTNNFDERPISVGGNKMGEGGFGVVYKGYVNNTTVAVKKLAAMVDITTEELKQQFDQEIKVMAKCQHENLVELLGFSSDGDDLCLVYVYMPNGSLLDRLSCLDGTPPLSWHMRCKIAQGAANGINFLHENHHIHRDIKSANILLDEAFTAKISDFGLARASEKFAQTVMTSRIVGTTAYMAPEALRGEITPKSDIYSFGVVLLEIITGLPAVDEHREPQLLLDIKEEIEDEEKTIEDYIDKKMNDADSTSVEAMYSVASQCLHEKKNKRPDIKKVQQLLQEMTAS

[1] = 0.625 nM HPK1, 22 μM ATP, 11 concentrations, read-out: HPK1 IC50

Structure (SMILES)	IC50 (HPK1; [1])	IRAK4/HPK1 Ratio (HPK1)	IC50 (IRAK4)	IC50 (HPK1)
CC1(C)OC(=O)c2ccc(Nc3cc(N[C@H](CO)C4CC4)c(-c4nc(C5CC5)no4)cn3)cc21 [Example 79, 5-{[5-(3-cyclopropyl-1,2,4-oxadiazol-5-yl)-4-{[(1S)-1-cyclopropyl-2-hydroxyethyl]amino}pyridin-2-yl]amino}-3,3-dimethyl-1,3-dihydro-2-benzofuran-1-one]	0.05 to 0.25 µM	B (B=10 to 50)	0.25 to 1 µM	
CC1(C)OC(=O)c2ccc(Nc3cc(N[C@H](CO)c4ccc(F)cc4)c(-c4nc(C56CCN(CC5)CC6)no4)cn3)nc21 [Example 82, 2-{[5-(3-{1-azabicyclo[2.2.2]octan-4-yl}-1,2,4-oxadiazol-5-yl)-4-{1[(1S)-1-(4-fluorophenyl)-2-hydroxyethyl]amino}pyridin-2-yl]amino}-7,7-dimethyl-5H,7H-furo [3,4-b]pyridin-5-one]		C (C=>50)	0.05 to 0.25 µM	< 0.05 µM
Cc1cnc(CNC(=O)c2cnc(Nc3ccc4c(c3)C(C)(C)OC4=O)nc2N[C@H](CO)c2ccccc2)cn1 [Example 20, 2-[(3,3-dimethyl-1-oxo-1,3-dihydro-2-benzofuran-5-yl)amino]-4-{[(1S)-2-hydroxy-1-phenylethyl]amino}-N-[(5-methylpyrazin-2-yl)methyl]pyrimidine-5-carboxamide]	< 0.05 µM	B (B=10 to 50)	0.25 to 1 µM	
CC1(C)OC(=O)c2ccc(Nc3ncc(-c4nc(-c5ccccn5)no4)c(N[C@H](CO)c4ccccc4)n3)cc21 [Example 42, 5-[(4-{[(1S)-2-hydroxy-1-phenylethyl]amino}-5-[3-(pyridin-2-yl)-1,2,4-oxadiazol-5-yl]pyrimidin-2-yl)amino]-3,3-dimethyl-1,3-dihydro-2-benzofuran-1-one]	< 0.05 µM	C (C=>50)	0.25 to 1 µM	
CC1(C)OC(=O)c2ccc(Nc3cc(N[C@H](CO)c4ccccc4)c(-c4nc(C56CCN(CC5)CC6)no4)cn3)nc21 [Example 81, 2-{[5-(3-{1-azabicyclo[2.2.2]octan-4-yl}-1,2,4-oxadiazol-5-yl)-4-{[(1S)-2-hydroxy-1-phenylethyl]amino}pyridin-2-yl]amino}-7,7-dimethyl-5H,7H-furo[3,4-b]pyridin-5-one]		C (C=>50)	0.05 to 0.25 µM	< 0.05 µM
CC(C)(CN)CNc1nc(Nc2ccc3c(c2)C(C)(C)OC3=O)ncc1-c1nc(C2CCOCC2)no1 [Example 77, 5-({4-[(3-amino-2,2-dimethylpropyl)amino]-5-[3-(oxan-4-yl)-1,2,4-oxadiazol-5-yl]pyrimidin-2-yl}amino)-3,3-dimethyl-1,3-dihydro-2-benzofuran-1-one]	< 0.05 µM	C (C=>50)	0.25 to 1 µM	
CC(=O)NC12CC(c3noc(-c4cnc(Nc5ccc6c(c5)C(C)(C)OC6=O)nc4N[C@H](CO)c4ccccc4)n3)(C1)C2 [Example 49, N-[3-(5-{2-[(3,3-dimethyl-1-oxo-1,3-dihydro-2-benzofuran-5-yl)amino]-4-{[(1S)-2-hydroxy-1-phenylethyl]amino}pyrimidin-5-yl}-1,2,4-oxadiazol-3-yl)bicyclo[1.1.1]penta-1-yl]acetamide]	< 0.05 µM	C (C=>50)	0.25 to 1 µM	
CC(NC(=O)c1cnc(Nc2ccc3c(c2)C(C)(C)OC3=O)nc1N[C@H](CO)c1ccccc1)c1ccccc1 (stereo partly drawn) [Example 15, 2-[(3,3-dimethyl-1-oxo-1,3-dihydro-2-benzofuran-5-yl)amino]-4-{[(1S)-2-hydroxy-1-phenylethyl]amino}-N-(1-phenylethyl)pyrimidine-5-carboxamide]	0.05 to 0.25 µM	B (B=10 to 50)	0.25 to 1 µM	
CC(C)(O)c1ccccc1CNc1nc(Nc2ccc3c(c2)C(C)(C)OC3=O)ncc1-c1nc(C2CC2)no1 [Example 73, 5-{[5-(3-cyclopropyl-1,2,4-oxadiazol-5-yl)-4-({[2-(2-hydroxypropan-2-yl)phenyl]methyl}amino)pyrimidin-2-yl]amino}-3,3-dimethyl-1,3-dihydro-2-benzofuran-1-one]	0.05 to 0.25 µM	B (B=10 to 50)	0.25 to 1 µM	
CC1(C)OC(=O)c2ccc(Nc3ncc(-c4n[nH]c(=O)o4)c(N[C@H](CO)c4ccccc4)n3)cc21 [Example 52, 5-{2-[(3,3-dimethyl-1-oxo-1,3-dihydro-2-benzofuran-5-yl)amino]-4-{[(1S)-2-hydroxy-1-phenylethyl]amino}pyrimidin-5-yl}-2,3-dihydro-1,3,4-oxadiazol-2-one]	< 0.05 µM	C (C=>50)	0.25 to 1 µM	
CC1(C)OC(=O)c2ccc(Nc3ncc(C4=NCC5(CCOCC5)O4)c(N[C@H](CO)c4ccccc4)n3)cc21 [Example 27, 5-[(5-{1,8-dioxa-3-azaspiro[4.5]dec-2-en-2-yl}-4-{[(1S)-2-hydroxy-1-phenylethyl]amino}pyrimidin-2-yl)amino]-3,3-dimethyl-1,3-dihydro-2-benzofuran-1-one]	< 0.05 µM	B (B=10 to 50)	0.05 to 0.25 µM	
COC(=O)NC12CC(c3noc(-c4cnc(Nc5ccc6c(c5)C(C)(C)OC6=O)nc4N[C@H](CO)c4ccccc4)n3)(C1)C2 [Example 50, Methyl N-[3-(5-{2-[(3,3-dimethyl-1-oxo-1,3-dihydro-2-benzofuran-5-yl)amino]-4-{[(1S)-2-hydroxy-1-phenylethyl]amino}pyrimidin-5-yl}-1,2,4-oxadiazol-3-yl)bicyclo[1.1.1]pentan-1-yl]carbamate]	< 0.05 µM	C (C=>50)	0.25 to 1 µM	
CC1(C)OC(=O)c2ccc(Nc3ncc(C(=O)NNC(=O)C(C)(O)C(F)(F)F)c(N[C@H](CO)c4ccccc4)n3)cc21 (stereo partly drawn) [Example 64, 2-[(3,3-dimethyl-1-oxo-1,3-dihydro-2-benzofuran-5-yl)amino]-4-{[(1S)-2-hydroxy-1-phenylethyl]amino}-N′-(3,3,3-trifluoro-2-hydroxy-2-methylpropanoyl)pyrimidine-5-carbohydrazide]	0.05 to 0.25 µM	B (B=10 to 50)	0.25 to 1 µM	
CC1(C)OC(=O)c2ccc(Nc3ncc(C(=O)N[C@H]4C[C@@H]4c4ccccc4)c(N[C@H](CO)c4ccccc4)n3)cc21 [Example 17, 2-[(3,3-dimethyl-1-oxo-1,3-dihydro-2-benzofuran-5-yl)amino]-4-{[(1S)-2-hydroxy-1-phenylethyl]amino}-N-[(1S,2R)-2-phenylcyclopropyl]pyrimidine-5-carboxamide]	0.05 to 0.25 µM	B (B=10 to 50)	0.25 to 1 µM	
CC1(C)OC(=O)c2ccc(Nc3ncc(-c4nc(C56CC(N)(C5)C6)no4)c(N[C@H](CO)c4ccccc4)n3)cc21 [Example 47, 5-{[5-(3-{3-aminobicyclo[1.1.1]pentan-1-yl}-1,2,4-oxadiazol-5-yl)-4-{[(1S)-2-hydroxy-1-phenylethyl]amino}pyrimidin-2-yl]amino}-3,3-dimethyl-1,3-dihydro-2-benzofuran-1-one]	< 0.05 µM	C (C=>50)	0.25 to 1 µM	
CN(C)CCCNC(=O)c1cnc(Nc2ccc3c(c2)C(C)(C)OC3=O)nc1N[C@H](CO)c1ccccc1 [Example 5, 2-[(3,3-dimethyl-1-oxo-1,3-dihydro-2-benzofuran-5-yl)amino]-N-[3-(dimethylamino)propyl]-4-{[(1S)-2-hydroxy-1-phenylethyl]amino}pyrimidine-5-carboxamide]	< 0.05 µM	B (B=10 to 50)	0.25 to 1 µM	
CC1(CNC(=O)c2cnc(Nc3ccc4c(c3)C(C)(C)OC4=O)nc2N[C@H](CO)c2ccccc2)COC1 [Example 23, 2-[(3,3-dimethyl-1-oxo-1,3-dihydro-2-benzofuran-5-yl)amino]-4-{[(1S)-2-hydroxy-1-phenylethyl]amino}-N-[(3-methyloxetan-3-yl)methyl]pyrimidine-5-carboxamide]	< 0.05 µM	B (B=10 to 50)	0.25 to 1 µM	
CC1(C)OC(=O)c2ccc(Nc3ncc(C(=O)NCc4ccccn4)c(N[C@H](CO)c4ccccc4)n3)cc21 [Example 6, 2-[(3,3-dimethyl-1-oxo-1,3-dihydro-2-benzofuran-5-yl)amino]-4-{[(1S)-2-hydroxy-1-phenylethyl]amino}-N-[(pyridin-2-yl)methyl]pyrimidine-5-carboxamide]	< 0.05 µM	B (B=10 to 50)	0.05 to 0.25 µM	
CC1(C)OC(=O)c2ccc(Nc3ncc(C(=O)NCc4ccccc4)c(N[C@H](CO)c4ccccc4)n3)cc21 [Example 10, N-benzyl-2-[(3,3-dimethyl-1-oxo-1,3-dihydro-2-benzofuran-5-yl)amino]-4-{[(1S)-2-hydroxy-1-phenylethyl]amino}pyrimidine-5-carboxamide]	< 0.05 µM	C (C=>50)	0.25 to 1 µM	
